Common to all, as to assay type: functional
Assay [1] has as its system CCRF-CEM. As to the kind of experiment: Cytotoxicity against human CCRF-CEM cells assessed as reduction in cell viability after 72 hrs by resazurin dye-based fluorescence assay. For orientation: The colour change of resazurin is a common sign of viable cells or microbes.
In assay [2] the test system is ADR5000 cell line. As to the kind of experiment: Cytotoxicity against human CEM/ADR5000 cells assessed as reduction in cell viability after 72 hrs by resazurin dye-based fluorescence assay. The note with it: ADR5000, 72 h.
Assay [3] has as its system MCF7. As to the kind of experiment: Cytotoxicity against human MCF7 cells assessed as reduction in cell viability after 72 hrs by resazurin dye-based fluorescence assay. The note with it: MCF7, 72 h.
Assay [4] relates to MCF7. The assay can be described thus: Cytotoxicity against human MCF7 cells assessed as reduction in cell viability at 10 uM after 72 hrs by resazurin dye-based fluorescence assay.
The test system of assay [5] is CCRF-CEM. The assay can be described thus: Cytotoxicity against human CCRF-CEM cells assessed as reduction in cell viability at 10 uM after 72 hrs by resazurin dye-based fluorescence assay.
The test system of assay [6] is ADR5000 cell line. The assay can be described thus: Cytotoxicity against human CEM/ADR5000 cells assessed as reduction in cell viability at 10 uM after 72 hrs by resazurin dye-based fluorescence assay.

Structures are written as SMILES. The source made the active and inactive calls. No cut-off for these calls is given here.

Regarding `C[C@@]12O[C@H]3C[C@@H](O1)[C@]1(C=O)[C@H]4CC[C@]5(C)[C@@H](c6ccc(=O)oc6)CC[C@]5(O)[C@@H]4CC[C@@]1(C3)O2`, the 50% inhibitory concentration (IC50) (usually the concentration needed to halve the response being measured) came out at 200 nM in assay [1], 200 nM in assay [2] and 1000 nM in assay [3].
For `CC(=O)O[C@H]1C[C@]2(C=O)[C@H]3CC[C@]4(C)[C@@H](c5ccc(=O)oc5)CC[C@]4(O)[C@@H]3CC[C@]2(O)C[C@H]1OC(C)=O`, the IC50 in assay [1] is 500 nM; in assay [2] it was 500 nM; in assay [3] it was 3500 nM.
With `CC(=O)O[C@H]1[C@H]2O[C@@]3(C)O[C@@H]1C[C@]1(CC[C@H]4[C@H]5[C@@H]6O[C@@H]6[C@H](c6ccc(=O)oc6)[C@@]5(C)CC[C@@H]4[C@@]21C=O)O3`, the values for the IC50 in assay [1], in assay [2] and in assay [3] were 1600 nM, 1800 nM and 4300 nM, respectively.
For `COc1cccc2c1C(=O)c1c(O)c3c(c(O)c1C2=O)C[C@@](O)(C(=O)CO)C[C@@H]3O[C@H]1C[C@H](N)[C@H](O)[C@H](C)O1` [DOXORUBICIN], the 50% inhibitory concentration (IC50) in assay [1] turned out to be 20 nM; in assay [3] it was 180 nM.
In the case of `CC(=O)OC[C@]12[C@@H]3OC4(C)O[C@H](C[C@]1(CC[C@@H]1[C@@H]2CC[C@]2(C)[C@@H](c5ccc(=O)oc5)CC[C@]12O)O4)[C@H]3O`, the result in assay [4], in assay [5] and in assay [6] was inactive.
For the molecule `C[C@@]12O[C@H]3C[C@@H](O1)[C@]1(C=O)[C@H]4CC[C@@]5(C)[C@@H]([C@@H]4CC[C@@]1(C3)O2)[C@@H]1O[C@@H]1[C@@H]5c1ccc(=O)oc1`, the half-inhibitory concentration (IC50) was 1600 nM in assay [1], 1600 nM in assay [2] and 4500 nM in assay [3].
Turning to `CC(=O)OC[C@]12[C@@H]3OC4(C)O[C@H](C[C@]1(CC[C@@H]1[C@@H]2CC[C@]2(C)[C@@H](c5ccc(=O)oc5)[C@H]5O[C@H]5[C@]12O)O4)[C@H]3OC(C)=O`, the result in assay [4], in assay [5] and in assay [6] was inactive.
Regarding `CC(=O)O[C@H]1C[C@]2(C=O)[C@H]3CC[C@]4(C)[C@@H](c5ccc(=O)oc5)CC[C@]4(O)[C@@H]3CC[C@]2(OC(C)=O)C[C@H]1OC(C)=O`, the IC50 in assay [1] was 100 nM; in assay [2], 100 nM; in assay [3], 300 nM.
Turning to `CC(=O)OC[C@]12[C@H]3C[C@H]4C[C@]1(CC[C@@H]1[C@@H]2CC[C@]2(C)[C@@H](c5ccc(=O)oc5)CC[C@]12O)OC(C)(O4)O3`, the outcome in assay [4], in assay [5] and in assay [6] was inactive.
Turning to `C[C@@]12O[C@H]3C[C@@H](O1)[C@]1(C=O)[C@H]4CC[C@]5(C)[C@@H](c6ccc(=O)oc6)[C@@H](O)C[C@]5(O)[C@@H]4CC[C@@]1(C3)O2`, the results for the half-inhibitory concentration (IC50) in assay [1], in assay [2] and in assay [3] were 600 nM, 800 nM and 3100 nM, respectively.

For the origin of these results see ChEMBL document CHEMBL4665700, “Cytotoxic Bufadienolides from the Leaves of Melianthus major” (J Nat Prod, 2020).
